# Measurements from ChEMBL document CHEMBL3244025, “Carbocyclic arabinosyladenine, an adenosine deaminase resistant antiviral agent” (J Med Chem, 1977).
# How the values were obtained:
# [1] = Stability of the compound assessed as calf intestinal adenosine deaminase type 3-mediated deamination in presence of C-ara-A; type: ADME, Bos taurus; details: cattle
# [2] = Cytotoxicity against human Hep2 cells; type: cell-based; details: hep-2
# P388 = test: Cytotoxicity against mouse P388 cells after 72 hrs by hemocytometric analysis; type: functional
# Human alphaherpesvirus 1 = test: Antiviral activity against Herpes simplex virus type 1 HF infected in human Hep2 cells assessed as inhibition of virus-induced cytopathogenic effect; type: functional, HEp-2
# [3] = Stability of the compound assessed as calf intestinal adenosine deaminase type 3-mediated deamination; type: ADME, Bos taurus; details: cattle
Structure (SMILES),Stability [1],Activity [2] [µg/mL],LD50 (P388) [×10⁻⁵ M],MED50 (Human alphaherpesvirus 1) [µg/mL],Stability [3]
Nc1ncnc2c1ncn2[C@@H]1O[C@H](CO)[C@@H](O)[C@H]1O [ADENOSINE],Unstable,–,–,–,–
Nc1ncnc2c1ncn2[C@@H]1C[C@H](CO)[C@@H](O)[C@@H]1O (racemic),–,9,1,2.8,Stable
Nc1ncnc2c1ncn2[C@@H]1O[C@H](CO)[C@@H](O)[C@@H]1O [VIDARABINE],Unstable,–,1,–,Unstable
